Where two headings read alike, the source gives them in different places.
Key:
[1] = system: HIV-1 LTR; assay: Tat-activated integrated LTR-CAT reporter assay in HeLa-CD4-LTR cells; format: cell-based
Experimental: (§1) Cell lines transfections and assays. Transfections of HeLa cells were performed as previously described (49). HeLa-CD4-LTR (9) cells were grown in DMEM supplemented with 10% FCS and transfected with 20 μg plasmid DNA (prepared using EndoFree plasmid kit, Qiagen, Valencia, Calif.) by calcium phosphate coprecipitation as per manufacturer's instructions (ProFection system, Promega, Madison, Wis.). After 30 minutes at room temperature, the solution was added to the cells (2.5-4×10^5 cells/plate). Twelve hours after transfection, the cells were washed with PBS and fed fresh medium. Forty-eight hours later the cells were harvested, cellular extracts prepared, and CAT assays performed as previously described (49). To control for the effect of transcription factor overexpression on general cellular promoters a reporter construct driven by the beta-actin promoter, pH[…]-actin-luciferase (66), was used in cotransfection and CAT expression normalized for luciferase activity. Other plasmids used have been previously described (2, 49). […] Up to 30 μl of cellular extract (normalized for protein concentration) in a final volume of 130 μl was used for luciferase reactions.
The LTR reporter carried by HeLa-CD4-LTR cell line exists within the native chromatin structure of the genome. […]

[2] = system: RCS oligonucleotide (−10 to +27 of HIV-1 LTR); format: binding
[3] = system: HIV-1; settings: HeLa cells cotransfected with pNL4-3 (CXCR4) or pYU-2 (CCR5)
Experimental: For virus production experiments 2×10^4 HeLa cells were transfected with 10 μl of Superfect (Qiagen, Valencia, Calif.) and 2.5-3.0 μg of DNA in a volume of 0.6 ml for 3 hours, washed with PBS, and then grown in 2 ml. Aliquots of culture medium were sampled for detection of HIV-1 p24^gag protein by antigen capture enzyme-linked immunosorbent assay according to the manufacturer's instructions (Coulter Corporation, Hialeah, Fla.).
As these cells support HIV replication but cannot be infected, a measurement of the effect of YY1 on a single round of viral replication can be made.
The influence of YY1 on viral production was assayed by testing of culture supernatant for the presence of the viral protein p24^gag.

[4] = system: HIV-1 LTR; assay: Tat-activated, LTR-driven CAT expression, plasmid-based reporter, transient cotransfection; format: cell-based; settings: data not shown
Experimental: as §1

## YY1: cellular transcription factor that binds the RCS and inhibits LTR-driven HIV transcription (SEQ ID NO: 3)
[1]; 200 ng pAR-Tat, 2.5 μg CMV expression plasmid, normalized to β-actin-luciferase
  Tat-activated CAT expression from integrated LTR reporter: inhibited Tat-activated CAT activity
[2]; 20 ng to 100 ng added in the presence of 10 ng of LSF
  Complex formation with the RCS in EMSA: increasing levels of complex formation
[2]; up to 100 ng protein alone
  Complex formation with the RCS in EMSA: did not form a detectable complex
[3]
  HIV-1 production (p24gag in culture supernatant): dose-dependent inhibition
[4]
  Tat-activated, LTR-driven CAT expression (plasmid-based reporter): inhibited Tat-activated, LTR-driven CAT expression

## CC(/C=C/C(=O)NO)=C\[C@@H](C)C(=O)c1ccc(N(C)C)cc1 [trichostatin-A, reference compound]
[1]; with YY1 transfection, trichostatin-A added to culture medium (data not shown)
  Effect on YY1-mediated repression of integrated LTR-CAT expression: blocked
